This assay concerns the target T1, phosphatase ABI1 via the co-regulator RCAR11/PYR1 (Arabidopsis thaliana, UniProt O49686+P49597).
T1 sequence (O49686 1-191): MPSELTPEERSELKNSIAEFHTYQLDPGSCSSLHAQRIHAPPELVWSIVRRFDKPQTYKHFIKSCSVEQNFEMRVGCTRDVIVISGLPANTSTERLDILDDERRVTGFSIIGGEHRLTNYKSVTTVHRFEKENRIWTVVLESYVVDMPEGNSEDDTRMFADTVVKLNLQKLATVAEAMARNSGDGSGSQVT
T1 sequence (P49597 1-434): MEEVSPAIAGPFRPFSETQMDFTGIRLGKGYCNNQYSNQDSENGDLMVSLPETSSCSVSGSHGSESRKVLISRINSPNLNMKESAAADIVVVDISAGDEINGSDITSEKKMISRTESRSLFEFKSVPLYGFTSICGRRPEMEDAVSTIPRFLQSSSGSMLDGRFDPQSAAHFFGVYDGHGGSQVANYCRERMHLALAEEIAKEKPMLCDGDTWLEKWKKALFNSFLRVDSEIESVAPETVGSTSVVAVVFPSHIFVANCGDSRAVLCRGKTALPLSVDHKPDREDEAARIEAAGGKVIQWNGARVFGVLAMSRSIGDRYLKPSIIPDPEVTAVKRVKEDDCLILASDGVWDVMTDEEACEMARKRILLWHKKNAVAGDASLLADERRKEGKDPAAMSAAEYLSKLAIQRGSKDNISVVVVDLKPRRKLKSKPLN
The assay can be described thus: In vitro assay: inhibition of the phosphatase ABI1 via the co-regulator RCAR11/PYR1 (dephosphorylation of 4-methylumbelliferyl phosphate, fluorescence). To be noted: 5 μM substance in a solution of DMSO and water, MUP substrate. It is filed as biochemical. The text has this: Effects of the phytohormone abscisic acid (ABA) on the behavior of plants under abiotic stress and the mechanism of action of ABA are described in the literature (cf. Abrams et al., WO97/23441, Park et al. Science, 2009, 324, 1068; Grill et al. Science, 2009, 324, 1064; Tanokura et al. Biophysics, 2011, 7, 123; Schroeder et al. Plant J. 2010, 61, 290). Therefore, it is possible with the aid of a suitable in vitro test system to derive a correlation between the action of ABA and the stress response of a plant under abiotic stress. In the event of water deficiency (drought stress), plants form the phytohormone abscisic acid (ABA). […]
The assay described hereinafter utilizes the inhibition of the phosphatase ABI1 via the co-regulator RCAR11/PYR1 aus Arabidopsis thaliana. For the determination of activity, the dephosphorylation of 4-methylumbelliferyl phosphate (MUP) was measured at 460 nm. […]
Enzyme buffer mix and substrate mix were made up 5 minutes prior to the addition and warmed to a temperature of 35° C. […] Finally, a relative fluorescence measurement was made at 35° C. with a BMG Labtech “POLARstar Optima” microplate reader using a 340/10 nm excitation filter and a 460 nm emission filter. […]

For `CC1=CC(=O)CC(C)(C)[C@@]1(O)/C=C/C(C)=C\C(=O)O` [abscisic acid], the ABI1 inhibition entry is “++++ (inhibition≥90%)”.

These data come from US20180199575A1, “SUBSTITUTED OXOTETRAHYDROQUINOLINYLPHOSPHINIC ACID AND PHOSPHINIC ACID AMIDES OR SALTS THEREOF AND USE THEREOF TO INCREASE STRESS TOLERANCE IN PLANTS” (priority 2015, published 2018).
